Data: patent US20230183237A1, “COMPETITIVE AND NONCOMPETITIVE INHIBITORS OF THE MUSCARINIC ACETYLCHOLINE RECEPTOR M5” (Vanderbilt University, priority 2020, published 2023)

Biological target: T1, hM5 (Homo sapiens, UniProt P08912)
T1 construct: expressed in transfected cells
T1 sequence (P08912 1-532): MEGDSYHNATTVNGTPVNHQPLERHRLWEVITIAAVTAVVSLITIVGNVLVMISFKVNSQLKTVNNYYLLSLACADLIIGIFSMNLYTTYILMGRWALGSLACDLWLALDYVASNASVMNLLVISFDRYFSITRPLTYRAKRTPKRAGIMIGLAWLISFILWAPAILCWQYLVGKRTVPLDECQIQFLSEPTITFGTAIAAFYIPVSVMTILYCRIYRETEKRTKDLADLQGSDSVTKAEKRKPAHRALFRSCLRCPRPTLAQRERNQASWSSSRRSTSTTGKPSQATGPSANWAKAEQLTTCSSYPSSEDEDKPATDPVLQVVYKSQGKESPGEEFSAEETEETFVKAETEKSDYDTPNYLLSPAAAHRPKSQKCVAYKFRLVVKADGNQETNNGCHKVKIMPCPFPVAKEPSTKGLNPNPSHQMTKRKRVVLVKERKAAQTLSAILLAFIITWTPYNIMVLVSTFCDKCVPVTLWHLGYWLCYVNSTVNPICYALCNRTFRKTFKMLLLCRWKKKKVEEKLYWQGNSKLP
Experiment: Calcium mobilization concentration-response (IC50 vs EC80 acetylcholine), CHO hM5
Type: cell-based
Settings: CELL LINE hM5; calcium mobilization, EC80 acetylcholine addition; read-out: IC50
Summary of the method: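 CHO cells stably expressing hM5, dye-loaded, in HBSS/20 mM HEPES/2.5 mM probenecid, pH 7.4. Compounds were pre-incubated 140 s before an EC80 acetylcholine challenge, with calcium flux read kinetically.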

First: Cc1cc2ncnn2cc1C1CCN(S(=O)(=O)c2cnn(C)c2Cl)C(C)C1 (stereo not drawn) [Compound 361, 6-(1-((5-chloro-1-methyl-1H-pyrazol-4-yl)sulfonyl)-2-methylpiperidin-4-yl)-7-methyl-[1,2,4]triazolo[1,5-a]pyridine]
Second: Cc1cc2ncnn2cc1C1CCN(S(=O)(=O)c2cnn3c2CCC3)C(C)C1 (stereo not drawn) [Compound 363, 6-(1-((5,6-dihydro-4H-pyrrolo[1,2-b]pyrazol-3-yl)sulfonyl)-2-methylpiperidin-4-yl)-7-methyl-[1,2,4]triazolo[1,5-a]pyridine]
The IC50 of the first is 2.4-fold higher: 1470 nM for the first, 618 nM for the second. The second is the more potent here.

Going from `Cc1cc2ncnn2cc1C1CCN(S(=O)(=O)c2c(C)nn(C)c2C(F)(F)F)C(C)C1` (stereo not drawn) [Compound 362, 6-(1-((1,3-dimethyl-5-(trifluoromethyl)-1H-pyrazol-4-yl)sulfonyl)-2-methylpiperidin-4-yl)-7-methyl-[1,2,4]triazolo[1,5-a]pyridine] to `Cc1c(S(=O)(=O)N2CCC(c3cn4ncnc4cc3OC(F)(F)F)CC2)cnn1C` [Compound 378, 6-(1-((1,5-dimethyl-1H-pyrazol-4-yl)sulfonyl)piperidin-4-yl)-7-(trifluoromethoxyl)-[1,2,4]triazolo[1,5-a]pyridine], the IC50 falls from > 10000 nM to 8150 nM. The second is the more potent here.

`Cn1ncc(S(=O)(=O)N2CCC(c3ccncc3)CC2)c1Cl` [Compound 364, 4-(1-((5-chloro-1-methyl-1H-pyrazol-4-yl)sulfonyl)piperidin-4-yl)pyridine] and `Cc1c(S(=O)(=O)N2CCC(c3ccncc3)CC2)cnn1C` [Compound 365, 4-(1-((1,5-dimethyl-1H-pyrazol-4-yl)sulfonyl)piperidin-4-yl)pyridine] cannot be ordered by IC50: > 10000 nM for the first, > 10000 nM for the second.

`O=S(=O)(c1cnn2c1CCC2)N1CCC(c2ccncc2)CC1` [Compound 366, 3-((4-(pyridin-4-yl)piperidin-1-yl)sulfonyl)-5,6-dihydro-4H-pyrrolo[1,2-b]pyrazole] and `O=S(=O)(c1cnn2c1CCCC2)N1CCC(c2ccncc2)CC1` [Compound 368, 3-((4-(pyridin-4-yl)piperidin-1-yl)sulfonyl)-4,5,6,7-tetrahydropyrazolo[1,5-a]pyridine] cannot be ordered by IC50: > 10000 nM for the first, > 10000 nM for the second.

Compared with `O=S(=O)(c1cnn2c1OCCC2)N1CCC(c2ccncc2)CC1` [Compound 367, 3-((4-(pyridin-4-yl)piperidin-1-yl)sulfonyl)-6,7-dihydro-5H-pyrazolo[5,1-b][1,3]oxazine], `Cc1ccncc1C1CCN(S(=O)(=O)c2cnn3c2OCCC3)CC1` [Compound 386, 3-((4-(4-methylpyridin-3-yl)piperidin-1-yl)sulfonyl)-6,7-dihydro-5H7-pyrazolo[5,1-b][1,3]oxazine] is lower in IC50: > 10000 nM for the first, 4620 nM for the second.

`Cc1cc2c(cc1C1CCN(S(=O)(=O)c3cnn(C)c3C)CC1)OCO2` [Compound 371, 1-((1,5-dimethyl-1H-pyrazol-4-yl)sulfonyl)-4-(6-methylbenzo[d][1,3]dioxol-5-yl)piperidine] and `Cc1cc2c(cc1C1CCN(S(=O)(=O)c3cnn(C)c3Cl)CC1)OCO2` [Compound 372, 1-((5-chloro-1-methyl-1H-pyrazol-4-yl)sulfonyl)-4-(6-methylbenzo[d][1,3]dioxol-5-yl)piperidine] are within 1.5-fold of each other in IC50: 17 nM for the first, 14 nM for the second.

Going from `Cc1cc2c(cc1C1CCN(S(=O)(=O)c3cnc(C)n3C)CC1)OCO2` [Compound 373, 1-((1,2-dimethyl-1H-imidazol-5-yl)sulfonyl)-4-(6-methylbenzo[d][1,3]dioxol-5-yl)piperidine] to `[2H]C1([2H])Oc2cc(C)c(C3CCN(S(=O)(=O)c4cnc(C)n4C)CC3)cc2OC1([2H])[2H]` [Compound 391, 1-((1,2-dimethyl-1H-imidazol-5-yl)sulfonyl)-4-(7-methyl-2,3-dihydrobenzo[b][1,4]dioxin-6-yl-2,2,3,3-d4)piperidine], the IC50 rises from 13 nM to 636 nM (49-fold). The first is the more potent here.

Going from `Cc1cc2c(cc1C1CCN(S(=O)(=O)c3cnn4c3CCC4)CC1)OCO2` [Compound 374, 3-((4-(6-methylbenzo[d][1,3]dioxol-5-yl)piperidin-1-yl)sulfonyl)-5,6-dihydro-4H-pyrrolo[1,2-b]pyrazole] to `[2H]C1([2H])Oc2cc(C)c(C3CCN(S(=O)(=O)c4cnn5c4OCCC5)CC3)cc2OC1([2H])[2H]` [Compound 393, 3-((4-(7-methyl-2,3-dihydrobenzo[b][1,4]dioxin-6-yl-2,2,3,3-d4)piperidin-1-yl)sulfonyl)-6,7-dihydro-5H-pyrazolo[5,1-b][1,3]oxazine], the IC50 rises from 7 nM to 86 nM (12-fold). The first is the more potent here.

Going from `Cc1cc2c(cc1C1CCN(S(=O)(=O)c3ccc4c(c3)CCO4)CC1)OCO2` [Compound 375, 1-((2,3-dihydrobenzofuran-5-yl)sulfonyl)-4-(6-methylbenzo[d][1,3]dioxol-5-yl)piperidine] to `[2H]C1([2H])Oc2cc(C)c(C3CCN(S(=O)(=O)c4cnc(C)s4)CC3)cc2OC1([2H])[2H]` [Compound 392, 2-methyl-5-((4-(7-methyl-2,3-dihydrobenzo[b][1,4]dioxin-6-yl-2,2,3,3-d4)piperidin-1-yl)sulfonyl)thiazole], the IC50 rises from 2060 nM to > 10000 nM. The first is the more potent here.

`Cc1c(S(=O)(=O)N2CC=C(c3cc4c(cc3Cl)N(C)CCO4)CC2)cnn1C` [Compound 376, 6-chloro-7-(1-((1,5-dimethyl-1H-pyrazol-4-yl)sulfonyl)-1,2,3,6-tetrahydropyridin-4-yl)-4-methyl-3,4-dihydro-2H-benzo[b][1,4]oxazine] and `CN1CCOc2cc(C3=CCN(S(=O)(=O)c4cnn(C)c4Cl)CC3)c(Cl)cc21` [Compound 377, 6-chloro-7-(1-((5-chloro-1-methyl-1H-pyrazol-4-yl)sulfonyl)-1,2,3,6-tetrahydropyridin-4-yl)-4-methyl-3,4-dihydro-2H-benzo[b][1,4]oxazine] are within 1.5-fold of each other in IC50: 1450 nM for the first, 1430 nM for the second.

Compared with `Cc1c(S(=O)(=O)N2CC=C(c3cn4ncnc4c(F)c3F)CC2)cnn1C` [Compound 379, 6-(1-((1,5-dimethyl-1H-pyrazol-4-yl)sulfonyl)-1,2,3,6-tetrahydropyridin-4-yl)-7,8-difluoro-[1,2,4]triazolo[1,5-a]pyridine], `Cc1c(S(=O)(=O)N2CC=C(c3cn4ncnc4c(F)c3Cl)CC2)cnn1C` [Compound 381, 7-chloro-6-(1-((1,5-dimethyl-1H-pyrazol-4-yl)sulfonyl)-1,2,3,6-tetrahydropyridin-4-yl)-8-fluoro-[1,2,4]triazolo[1,5-a]pyridine] is 19-fold lower in IC50: 243 nM for the first, 13 nM for the second.

Compared with `Cc1c(C2=CCN(S(=O)(=O)c3cnn(C)c3C)CC2)cn2ncnc2c1Cl` [Compound 380, 8-chloro-6-(1-((1,5-dimethyl-1H-pyrazol-4-yl)sulfonyl)-1,2,3,6-tetrahydropyridin-4-yl)-7-methyl-[1,2,4]triazolo[1,5-a]pyridine], `Cn1ncc(S(=O)(=O)N2CCC(c3cc(F)c4ncnn4c3)CC2)c1Cl` [Compound 382, 6-(1-((5-chloro-1-methyl-1H-pyrazol-4-yl)sulfonyl)piperidin-4-yl)-8-fluoro-[1,2,4]triazolo[1,5-a]pyridine] is 23-fold higher in IC50: 37 nM for the first, 849 nM for the second.

First: Cc1ccncc1C1CCN(S(=O)(=O)c2cnn(C)c2Cl)CC1 [Compound 383, 3-(1-((5-chloro-1-methyl-1H-pyrazol-4-yl)sulfonyl)piperidin-4-yl)-4-methylpyridine]
Second: Cc1ccncc1C1CCN(S(=O)(=O)c2cnn(C)c2C)CC1 [Compound 384, 3-(1-((1,5-dimethyl-1H-pyrazol-4-yl)sulfonyl)piperidin-4-yl)-4-methylpyridine]
The IC50 of the first is 3.5-fold lower: 1640 nM for the first, 5760 nM for the second. The first is the more potent here.

First: Cc1ccncc1C1CCN(S(=O)(=O)c2cnc(C)n2C)CC1 [Compound 385, 3-(1-((1,2-dimethyl-1H-imidazol-5-yl)sulfonyl)piperidin-4-yl)-4-methylpyridine]
Second: Cc1ccncc1C1CCN(S(=O)(=O)c2cnn3c2CCC3)CC1 [Compound 388, 3-((4-(4-methylpyridin-3-yl)piperidin-1-yl)sulfonyl)-5,6-dihydro-4H-pyrrolo[1,2-b]pyrazole]
The IC50 of the first is higher: > 10000 nM for the first, 822 nM for the second.

Compared with `O=S(=O)(c1cnn2c1OCCC2)N1CCC(c2ccc3ncnn3c2)CC1` [Compound 387, 3-((4-([1,2,4]triazolo[1,5-a]pyridin-6-yl)piperidin-1-yl)sulfonyl)-6,7-dihydro-5H-pyrazolo[5,1-b][1,3]oxazine], `Cc1cc(C(F)(F)F)ncc1C1CCN(S(=O)(=O)c2cnn(C)c2C)CC1` [Compound 394, 5-(1-((1,5-dimethyl-1H-pyrazol-4-yl)sulfonyl)piperidin-4-yl)-4-methyl-2-(trifluoromethyl)pyridine] is 22-fold higher in IC50: 113 nM for the first, 2510 nM for the second. The first is the more potent here.

`[2H]C1([2H])Oc2cc(C)c(C3CCN(S(=O)(=O)c4cnn(C)c4C)CC3)cc2OC1([2H])[2H]` [Compound 389, 1-((1,5-dimethyl-1H-pyrazol-4-yl)sulfonyl)-4-(7-methyl-2,3-dihydrobenzo[b][1,4]dioxin-6-yl-2,2,3,3-d4)piperidine] and `[2H]C1([2H])Oc2cc(C)c(C3CCN(S(=O)(=O)c4cnn(C)c4Cl)CC3)cc2OC1([2H])[2H]` [Compound 390, 1-((5-chloro-1-methyl-1H-pyrdzol-4-yl)sulfonyl)-4-(7-methyl-2,3-dihydrobenzo[b][1,4]dioxin-6-yl-2,2,3,3-d4)piperidine] are within 1.5-fold of each other in IC50: 182 nM for the first, 206 nM for the second.

`Cc1cc(C(F)(F)F)ncc1C1CCN(S(=O)(=O)c2cnn(C)c2Cl)CC1` [Compound 395, 5-(1-((5-chloro-1-methyl-1H-pyrazol-4-yl)sulfonyl)piperidin-4-yl)-4-methyl-2-(triflu0romethyl)pyridine] was tested, and the IC50 was 1290 nM.
